Measurements: the NIST ThermoML archive (doi:10.1021/je060271a)

Conditions: 303.15 K, Liquid, Vibrating tube method

CCCCCCCC(=O)OCC(COC(=O)CCCCCCC)(COC(=O)CCCCCCC)COC(=O)CCCCCCC [pentaerythritol tetraoctanoate]
Conditions | mass density [kg/m3]
2156.4 kPa | 956.7
2179.1 kPa | 956.6
2206.4 kPa | 956.8
2234.6 kPa | 956.8
2258 kPa | 956.7
2287 kPa | 956.8
2316.5 kPa | 956.9
2341.8 kPa | 956.8
2372.4 kPa | 956.7
2402.9 kPa | 957
2429.4 kPa | 956.7
2462 kPa | 956.8
2495.8 kPa | 956.9
2524.1 kPa | 957
2559.1 kPa | 956.9
2596.2 kPa | 957.1
2642 kPa | 957
2696.3 kPa | 957.1
2784.7 kPa | 957.1
2865.2 kPa | 957.2
2954.3 kPa | 957.3
3081.5 kPa | 957.2
3108.7 kPa | 957.4
3121.2 kPa | 957.4
3136.3 kPa | 957.4
3151.3 kPa | 957.4
3164 kPa | 957.4
3179.1 kPa | 957.5
3193.3 kPa | 957.4
3204.5 kPa | 957.4
3218.1 kPa | 957.4
3229.7 kPa | 957.4
3242.8 kPa | 957.4
3256.4 kPa | 957.5
3270.2 kPa | 957.4
3284.1 kPa | 957.5
3580.6 kPa | 957.6
3702.5 kPa | 957.6
3720 kPa | 957.5
3734.9 kPa | 957.7
3753.7 kPa | 957.7
3901.1 kPa | 957.9
4311.5 kPa | 958.1
4330 kPa | 958
4352.8 kPa | 958.1
4371.7 kPa | 958.1
4395.1 kPa | 958.1
4412.6 kPa | 958.1
4416.5 kPa | 958.2
4419.7 kPa | 958.2
4422.8 kPa | 958.2
4423.3 kPa | 958.2
4424.2 kPa | 958.1
4426.8 kPa | 958.2
4435.8 kPa | 958.1
4446.7 kPa | 958.3
4455.8 kPa | 958.2
4466.6 kPa | 958
4475.6 kPa | 958.1
4486.7 kPa | 958.2
4542.6 kPa | 958.3
4584.4 kPa | 958.1
4608.3 kPa | 958.4
4628.1 kPa | 958.3
4651.8 kPa | 958.3
4675.6 kPa | 958.3
4696.6 kPa | 958.2
4717 kPa | 958.3
4742.3 kPa | 958.4
4763.2 kPa | 958.3
4788.5 kPa | 958.3
4809.9 kPa | 958.5
4835.7 kPa | 958.4
4857.2 kPa | 958.4
4981.8 kPa | 958.4
5009.3 kPa | 958.4
5033 kPa | 958.5
5062 kPa | 958.5
5085.4 kPa | 958.5
5113.6 kPa | 958.5
5138.1 kPa | 958.6
5167.4 kPa | 958.5
5197.3 kPa | 958.7
5221.9 kPa | 958.5
5251.8 kPa | 958.7
5277.7 kPa | 958.7
5335.3 kPa | 958.6
5367.5 kPa | 958.6
5396 kPa | 958.7
5428.7 kPa | 958.7
5455.7 kPa | 958.7
5489.1 kPa | 958.8
5517.5 kPa | 958.8
5552 kPa | 958.7
5581.6 kPa | 958.8
5767 kPa | 959
5794 kPa | 959.1
5810.8 kPa | 959
5827.4 kPa | 959
5847.7 kPa | 959
5864.7 kPa | 959.1
5884.7 kPa | 959.1
5905.3 kPa | 959.1
5922.3 kPa | 959.1
5943.2 kPa | 959
5960.8 kPa | 959.2
5981.9 kPa | 959.1
5999.7 kPa | 959.2
6021.7 kPa | 959.2
6040 kPa | 959.2
6060.9 kPa | 959.1
6079.2 kPa | 959.1
6100.3 kPa | 959.1
6121.9 kPa | 959.2
6140.7 kPa | 959.2
6163.6 kPa | 959.3
6182 kPa | 959.2
6204.5 kPa | 959.3
6223.9 kPa | 959.3
6247 kPa | 959.2
6267.1 kPa | 959.2
6290.2 kPa | 959.3
6308.9 kPa | 959.3
6332.4 kPa | 959.2
6355.9 kPa | 959.3
6375.8 kPa | 959.2
6400.1 kPa | 959.3
6445.1 kPa | 959.4
6470.5 kPa | 959.3
6490.8 kPa | 959.3
6583.6 kPa | 959.4
6610.2 kPa | 959.4
6631.8 kPa | 959.5
6658.3 kPa | 959.5
6679.2 kPa | 959.5
6705.9 kPa | 959.6
6728.4 kPa | 959.5
6755.2 kPa | 959.5
6783 kPa | 959.5
6805.9 kPa | 959.6
6833.9 kPa | 959.6
6861.7 kPa | 959.7
6913.4 kPa | 959.7
7101.4 kPa | 959.8
7125.9 kPa | 959.9
7156.7 kPa | 959.7
7182.6 kPa | 959.8
7214 kPa | 959.8
